Experimental data taken from US20180246105A1, “IMMUNOLOGICAL TEST KIT FOR […] EFFICACY AND STORAGE METHOD THEREOF” (priority 2015, published 2018).
“Also recorded” adds a separate entry of the source.

What was measured:
[1] = Clinical trial ChiCTR-TRC-13003254: serum ALT kinetics; format: in vivo, human; conditions: 48-week treatment and 72-week follow-up
Method: HBV DNA was not detected or the level decreased at least 2 log 10 IU/mL compared with the basement on weeks 12, 24, 36, 48 and 72; The AST and ALT level on weeks 12, 24, 36, 48 and 72; The histological response, with the inflammation and fibrosis should rate under level 1 of the liver on week 48.
Routine biochemistry (liver function, renal function); Blood cell analysis; Serum HBV DNA detection; HBVM detection; All the detection were conducted in the central laboratory of Huashan Hospital.

[2] = tested on: T cell subsets (Th1, Th2, Th17, Treg, Tc1, Tc17); assay: T-lymphocyte subset proportions and subset ratios during treatment; format: in vivo, human
Text: From the previous results, a T cell responds heterogeneously. In order to intuitively understand the dynamic changes of different T cell subsets, IFN-γ^+ CD4^+ T cells were assigned into the Th1, IL-4^+ CD4^+ T cells as TH2, IL-17a producing CD4^+ T cells as TH17, Foxp3^+CD4^+ T cells Treg, and the CD8^+ T cells secreting different cytokines were classified as TC1 and […] by the same method.
In order to further obtain the effect of different therapies on cellular immunity, the TH1/Treg, Th2/Treg, Th17/Treg, and Th1/th2 was analyzed and plotted.

CD8+ T cells = assay: Clinical cellular immune detection (10-day enrichment), CD8+ T cells re-stimulated with HBV-specific peptides; format: in vivo, human
Method: (§1) 7) Cell seeding and peptide stimulation. PBMC was re-suspended with 10% FBS-RPMI-1640 and seeded into 12-well plate with 1mL/well. Specific peptides were added at the same time with 1 μL per well. The plate was then incubated in 5% CO2, 37° C.
(§2) After five days incubation, 50 μL sample was taken from each well and stored at −80° C. Then added 500 ul 10% FBS-RPMI-1640 contained […], continued for another five days incubator.
(§3) 2) Stimulation. After 10 days enrichment, the cells in 12-well plate were transferred into a 1.5 mL EP tube. Centrifuge with 1500 rpm, 3 min. Discard supernatant and re-suspend with FBS-RPMI-1640 prepared in step 1. The suspended cells were then seeded into a 96-well plate, the plate was coated with PMA, N, CMV, S4, S8 and MIX, 90 uL/well with three repetitions. Then the plate was incubated in 5% CO2, 37° C. for 8 hours.
(§4) 3) Storage. After 8 hours incubation, the 96-well plate was set for centrifuge with 1500 rpm, 3 min. Discard supernatant and re-suspend with 200 μL cell freezing medium (10% DMSO with 90% FBS). Disassociation by pipetting 3 to 5 times and sealed with parafilm. And then set for gradient cryopreservation with 4° C. for 1 hour, at −20° C. for 40 min and at −80° C. thereafter.
(§5) 3) Cell surface marker staining Panel 1, CD4-APC; Panel 2, CD8-APC; Panel 3, CD4-FITC. The dose of antibody was as the recommended dose in the reagent manual. Plate was centrifuged with 1500 rpm, 3 min. Discard supernatant and re-suspend with staining buffer in 4° C. for 30 min.
6) Intracellular staining. […]
8) FACS detection. […] The result data was analyzed with FlowJo v7.6.3, and the results were shown as positive percentage.
Antigen specific cellular immunity may play an important role in chronic HBV treatment. […] After the cell was collected and re-stimulated by HBV-specific polypeptide for 8 hours, the levels of cytokines in CD4+ and CD8^+ T lymphocytes were detected by flow cytometry. IL-2, IL-4, IL-10, IL-17a, Foxp3, IFN-γ and TNF-α were analyzed in CD4^+ T cells, whereas IL-2, IL-17a, IFN-γ and TNF-α were analyzed in CD8^+ T lymphocyte.

CD4+ T cells = assay: Clinical cellular immune detection (10-day enrichment), CD4+ T cells re-stimulated with HBV-specific peptides; format: in vivo, human
Method: as §1, §2, §3, §4, §5
6) Intracellular staining. Panel 1/Panel 2, IFN-g-PE, TNF-α-BV421, IL-17-APC/cy7, IL-2-FITC; Panel 3, FOXP3-APC, IL-4-BV421, IL-10-PE. The dose of antibody was at the recommended dose in the reagent manual. Re-suspend the cells with staining buffer in room temperature for 1.5 hour with shake.
8) FACS detection. The detection was conducted with BD LSR Fortessa (BD Bioscience, USA). The voltage and compensation may be well adjusted. The result data was analyzed with FlowJo v7.6.3, and the results were shown as positive percentage.
Antigen specific cellular immunity may play an important role in chronic HBV treatment. […] Peripheral Blood mononuclear cells (PBMC) were isolated and re-stimulated with HBV-specific polypeptide for 10-day enrichment. After the cell was collected and re-stimulated by HBV-specific polypeptide for 8 hours, the levels of cytokines in CD4+ and CD8^+ T lymphocytes were detected by flow cytometry. IL-2, IL-4, IL-10, IL-17a, Foxp3, IFN-γ and TNF-α were analyzed in CD4^+ T cells, whereas IL-2, IL-17a, IFN-γ and TNF-α were analyzed in CD8^+ T lymphocyte.

HBsAg = conditions: after five years of treatment; HBeAg positive CHB patients; cited from earlier work
[3] = 0 to 72 weeks, significant changes at 24th week

Row | SMILES | ALT level, change [1] | change of TH1, TH2, TH17, TC1 and Tc17 cell proportions ([2]; 0 weeks to 72 weeks) | proportion of Treg cells in total T cell subsets ([2]; 48 weeks) | proportion of Treg cells in total T cell subsets ([2]; 72 weeks, follow-up endpoint) | proportion of Treg cells in total T cell subsets ([2]; baseline) | IFN-γ secreted by CD8+ T cells, dynamics (CD8+ T cells; HLA-A2+ or HLA-A2− S polypeptide re-stimulation, 0 to 72 weeks) | IL-17A of CD8+ T cells, dynamics (CD8+ T cells; S polypeptide pool stimulation) | IL-2 and TNF-α secreted by CD8+ T cells, dynamics (CD8+ T cells; S polypeptide re-stimulation, course of treatment) | Foxp3 expression in CD4+ T cells (Treg), dynamics (CD4+ T cells; [3]) | IL-10 secretion in CD4+ T cells, dynamics (CD4+ T cells; [3]) | Foxp3 expression in CD4+ T cells (Treg), dynamics (CD4+ T cells; 0 to 72 weeks, significant changes at 24th week, listed as Adv) | IL-4 in CD4+ T cells, dynamics (CD4+ T cells; S-polypeptide pool stimulation) | IFN-γ expression in CD4+ T cells, dynamics (CD4+ T cells; S-polypeptide pool stimulation, 0 to 72 weeks) | IL-2 and TNF-α in CD4+ T cells, dynamics (CD4+ T cells; S-polypeptide pool stimulation, course of treatment) | IL-17A in CD4+ T cells, dynamics (CD4+ T cells; peptide pool stimulation, course of treatment) | patients with HBsAg serotype transformed (HBsAg)
1 | CC(C)(C)C(=O)OCOP(=O)(COCCn1cnc2c(N)ncnc21)OCOC(=O)C(C)(C)C [ADV, Adefovir Dipivoxil] | did not change significantly | no significant changes | 25.8% | 37.8% | 37.7% | no difference | no significance | No significant difference | not significantly changed; also recorded: no significant fluctuation; also recorded: did not show significant fluctuation | no significant change | did not change significantly; also recorded: did not show significant fluctuation | no difference | no significant difference | no significant difference | no significant change | 
2 | C[C@H](Cn1cnc2c(N)ncnc21)OCP(=O)(O)O [Tenofovir] |  |  |  |  |  |  |  |  |  |  |  |  |  |  |  | 23 of 266
